The nature of the series: Solubility of the ingredient in water (description). Format: physicochemical. The settings on record: white fluffy powder.

Where a SMILES comes first, the peptide text is derived from it. Bridges are numbered along the chain shown (N, C = ends).

Consider `CC(C)C[C@H](NC(=O)[C@H](CCCCN)NC(=O)CNC(=O)[C@H](CC(C)C)NC(=O)[C@@H](NC(=O)[C@@H]1CSSC[C@H](N)C(=O)N[C@@H](CO)C(=O)N[C@@H](CC(N)=O)C(=O)N[C@@H](CC(C)C)C(=O)N[C@@H](CO)C(=O)N[C@@H]([C@@H](C)O)C(=O)N1)C(C)C)C(=O)N[C@@H](CO)C(=O)N[C@@H](CCC(N)=O)C(=O)N[C@@H](CCC(=O)O)C(=O)N[C@@H](CC(C)C)C(=O)N[C@@H](Cc1c[nH]cn1)C(=O)N[C@@H](CCCCN)C(=O)N[C@@H](CC(C)C)C(=O)N[C@@H](CCC(N)=O)C(=O)N[C@H](C(=O)N[C@@H](Cc1ccc(O)cc1)C(=O)N1CCC[C@H]1C(=O)N[C@@H](CCCNC(=N)N)C(=O)N[C@H](C(=O)N[C@@H](CC(=O)O)C(=O)N[C@H](C(=O)NCC(=O)N[C@@H](C)C(=O)NCC(=O)N[C@H](C(=O)N1CCC[C@H]1C(N)=O)[C@@H](C)O)C(C)C)[C@@H](C)O)[C@@H](C)O` [eel calcitonin, eel calcitonin (synthetic)] (H-CSNLSTCVLGKLSQELHKLQTYPRTDVGAGTP-NH2; disulfide 1-7), for which the Solubility in water result is listed as “easily soluble in water”.

The values are drawn from US5310727A, “Pharmaceutical compositions for parenteral use containing a calcitonin as the active ingredient” (Scalvo S.p.A., priority 1986, dated 1994).
